Laboratory results: ChEMBL document CHEMBL5390253, “Discovery of Selective and Potent Macrocyclic CDK9 Inhibitors for the Treatment of Osimertinib-Resistant Non-Small-Cell Lung Cancer” (J Med Chem, 2023)
The source made the active and inactive calls. The rule behind the calls is not given here.

Tests used:
HCC827 [1] = assay: Antiproliferative activity against human HCC827 cells incubated for 72 hrs by MTT assay; type: functional, cell-based; conditions: HCC827, 72 h
NCI-H1975 [2] = assay: Antiproliferative activity against human NCI-H1975 cells incubated for 72 hrs by MTT assay; type: functional, cell-based; conditions: NCI-H1975, 72 h
[3] = Downregulation of Mcl-1 in human NCI-H1975 cells at 500 nM relative to control; type: functional
[4] = target: CDK9/cyclin T1 (Homo sapiens) (UniProt O60563+P50750); assay: Inhibition of CDK9/Cyclin-T1 (unknown origin) at 20 nM preincubated for 10 mins followed by substrate addition and measured after 60 mins in presence of ATP by ADP-Glo reagent based assay relative to control; type: protein-complex assay; conditions: time 70.0 min
[5] = target: CDK2/Cyclin A2 (Homo sapiens) (UniProt P24941+P20248); assay: Inhibition of CDK2/Cyclin A2 (unknown origin) at 100 nM preincubated for 10 mins followed by substrate addition and measured after 60 mins in presence of ATP by ADP-Glo reagent based assay relative to control; type: protein-complex assay; conditions: time 70.0 min
CDK9/cyclin T1 = CDK9/cyclin T1 (Homo sapiens, UniProt P50750); assay: Inhibition of CDK9/Cyclin-T1 (unknown origin) preincubated for 10 mins followed by substrate addition and measured after 60 mins in presence of ATP by ADP-Glo reagent based assay; type: protein-complex assay
Sequence of CDK9/cyclin T1 (O60563 whole entry): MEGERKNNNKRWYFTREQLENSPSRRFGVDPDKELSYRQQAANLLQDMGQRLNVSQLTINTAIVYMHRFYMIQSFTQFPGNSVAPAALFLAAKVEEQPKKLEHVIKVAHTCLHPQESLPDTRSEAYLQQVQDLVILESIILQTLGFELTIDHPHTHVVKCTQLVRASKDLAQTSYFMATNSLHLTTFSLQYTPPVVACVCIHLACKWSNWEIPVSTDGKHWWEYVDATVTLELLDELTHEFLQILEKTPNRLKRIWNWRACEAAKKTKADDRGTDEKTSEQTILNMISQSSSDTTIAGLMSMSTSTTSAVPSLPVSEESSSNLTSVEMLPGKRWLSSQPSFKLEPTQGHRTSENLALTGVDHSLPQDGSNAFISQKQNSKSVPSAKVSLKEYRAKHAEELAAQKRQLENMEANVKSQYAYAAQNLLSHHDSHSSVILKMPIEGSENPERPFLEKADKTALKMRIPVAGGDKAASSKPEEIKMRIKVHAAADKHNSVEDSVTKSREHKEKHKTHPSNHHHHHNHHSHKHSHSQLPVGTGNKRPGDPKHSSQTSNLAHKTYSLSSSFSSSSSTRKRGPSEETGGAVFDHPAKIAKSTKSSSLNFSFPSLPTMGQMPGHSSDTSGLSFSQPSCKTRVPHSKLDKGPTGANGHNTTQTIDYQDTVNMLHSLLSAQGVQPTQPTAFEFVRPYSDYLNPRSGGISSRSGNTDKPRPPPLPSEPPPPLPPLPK
Sequence of CDK9/cyclin T1 (P50750 whole entry): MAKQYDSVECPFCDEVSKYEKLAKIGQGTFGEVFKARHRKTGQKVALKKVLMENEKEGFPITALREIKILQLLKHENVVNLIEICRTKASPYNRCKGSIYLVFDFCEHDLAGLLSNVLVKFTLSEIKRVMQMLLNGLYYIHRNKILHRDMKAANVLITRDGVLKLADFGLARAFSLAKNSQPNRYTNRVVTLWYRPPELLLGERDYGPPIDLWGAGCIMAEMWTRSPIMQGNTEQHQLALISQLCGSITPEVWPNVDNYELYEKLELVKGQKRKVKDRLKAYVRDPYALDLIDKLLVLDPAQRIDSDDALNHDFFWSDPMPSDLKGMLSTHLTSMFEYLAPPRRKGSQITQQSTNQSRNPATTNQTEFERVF

CDK2/Cyclin A2 = CDK2/Cyclin A2 (Homo sapiens, UniProt P24941); assay: Inhibition of CDK2/Cyclin A2 (unknown origin) preincubated for 10 mins followed by substrate addition and measured after 60 mins in presence of ATP by ADP-Glo reagent based assay; type: protein-complex assay
[6] = target: Receptor-type tyrosine-protein kinase FLT3 (Homo sapiens) (UniProt P36888); assay: Inhibition of FLT3 (unknown origin) at 100 nM preincubated for 10 mins followed by substrate addition and measured after 60 mins in presence of ATP by ADP-Glo reagent based assay relative to control; conditions: time 70.0 min
Sequence of Receptor-type tyrosine-protein kinase FLT3 (Homo sapiens) (P36888 whole entry): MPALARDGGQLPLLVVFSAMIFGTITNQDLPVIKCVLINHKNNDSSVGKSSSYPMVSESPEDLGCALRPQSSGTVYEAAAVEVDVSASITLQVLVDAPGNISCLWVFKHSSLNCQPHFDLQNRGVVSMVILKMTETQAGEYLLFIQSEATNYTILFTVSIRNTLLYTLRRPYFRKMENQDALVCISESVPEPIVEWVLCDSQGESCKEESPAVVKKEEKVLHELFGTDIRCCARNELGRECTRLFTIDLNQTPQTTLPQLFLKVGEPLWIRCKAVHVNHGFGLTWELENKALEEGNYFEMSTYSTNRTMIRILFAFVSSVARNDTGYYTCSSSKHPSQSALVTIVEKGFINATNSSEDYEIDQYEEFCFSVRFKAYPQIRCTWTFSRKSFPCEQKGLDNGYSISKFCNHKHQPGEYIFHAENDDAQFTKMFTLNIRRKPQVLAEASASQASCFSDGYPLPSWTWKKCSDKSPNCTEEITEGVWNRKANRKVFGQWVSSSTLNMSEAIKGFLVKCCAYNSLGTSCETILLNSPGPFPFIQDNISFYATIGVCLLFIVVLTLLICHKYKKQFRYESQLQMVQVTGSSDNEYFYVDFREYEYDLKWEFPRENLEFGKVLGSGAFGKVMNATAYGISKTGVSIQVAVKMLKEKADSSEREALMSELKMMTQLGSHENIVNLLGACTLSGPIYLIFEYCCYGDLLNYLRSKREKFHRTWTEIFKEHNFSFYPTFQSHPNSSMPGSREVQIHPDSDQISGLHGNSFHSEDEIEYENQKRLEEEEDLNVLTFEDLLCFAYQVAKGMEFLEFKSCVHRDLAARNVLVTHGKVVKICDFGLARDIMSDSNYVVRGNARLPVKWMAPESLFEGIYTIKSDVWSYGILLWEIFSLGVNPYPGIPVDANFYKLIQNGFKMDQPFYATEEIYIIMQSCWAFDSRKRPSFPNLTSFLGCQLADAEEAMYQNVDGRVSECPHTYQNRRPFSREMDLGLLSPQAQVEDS

[7] = target: Tyrosine-protein kinase JAK2 (Homo sapiens) (UniProt O60674); assay: Inhibition of JAK2 (unknown origin) at 100 nM preincubated for 10 mins followed by substrate addition and measured after 60 mins in presence of ATP by ADP-Glo reagent based assay relative to control; conditions: time 70.0 min
Sequence of Tyrosine-protein kinase JAK2 (Homo sapiens) (O60674 whole entry): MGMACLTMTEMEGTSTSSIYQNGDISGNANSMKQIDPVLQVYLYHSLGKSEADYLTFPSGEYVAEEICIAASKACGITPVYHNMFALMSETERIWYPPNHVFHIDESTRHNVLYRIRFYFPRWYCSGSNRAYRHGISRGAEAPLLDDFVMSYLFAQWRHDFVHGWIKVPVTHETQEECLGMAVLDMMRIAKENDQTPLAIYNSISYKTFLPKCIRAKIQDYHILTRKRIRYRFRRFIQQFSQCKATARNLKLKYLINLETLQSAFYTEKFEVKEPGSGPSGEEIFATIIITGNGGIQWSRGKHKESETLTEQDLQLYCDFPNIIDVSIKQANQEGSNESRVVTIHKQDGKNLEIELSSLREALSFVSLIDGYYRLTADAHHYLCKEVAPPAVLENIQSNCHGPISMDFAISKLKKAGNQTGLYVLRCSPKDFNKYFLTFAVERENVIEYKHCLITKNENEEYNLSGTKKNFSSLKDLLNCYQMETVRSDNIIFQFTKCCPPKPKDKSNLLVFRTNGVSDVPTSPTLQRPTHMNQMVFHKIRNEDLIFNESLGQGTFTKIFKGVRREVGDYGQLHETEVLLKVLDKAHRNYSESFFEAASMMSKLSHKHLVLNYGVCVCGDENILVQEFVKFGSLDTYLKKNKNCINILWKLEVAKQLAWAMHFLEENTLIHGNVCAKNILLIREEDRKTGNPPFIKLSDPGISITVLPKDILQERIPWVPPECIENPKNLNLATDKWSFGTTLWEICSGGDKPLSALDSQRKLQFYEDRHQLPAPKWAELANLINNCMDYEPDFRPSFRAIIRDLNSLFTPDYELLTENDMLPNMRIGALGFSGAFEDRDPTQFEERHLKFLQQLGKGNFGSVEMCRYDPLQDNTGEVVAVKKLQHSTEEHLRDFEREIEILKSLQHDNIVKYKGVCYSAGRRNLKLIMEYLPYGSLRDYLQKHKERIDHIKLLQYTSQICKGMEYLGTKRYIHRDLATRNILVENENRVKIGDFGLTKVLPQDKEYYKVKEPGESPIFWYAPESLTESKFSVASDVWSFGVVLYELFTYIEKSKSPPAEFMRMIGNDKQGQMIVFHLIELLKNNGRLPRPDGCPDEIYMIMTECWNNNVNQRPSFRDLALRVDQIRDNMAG

[8] = Antiproliferative activity against human Osimertinib-resistant NCI-H1975 cell incubated for 72 hrs by MTT assay; type: functional, cell-based; conditions: NCI-H1975, 72 h
HCC827 [9] = assay: Downregulation of Mcl-1 level in human HCC827 cells measured after 8 hrs by Western blotting analysis; type: functional, cell-based; conditions: dose <= 0.5 µM
NCI-H1975 [10] = assay: Downregulation of Mcl-1 level in human NCI-H1975 cells measured after 8 hrs by Western blotting analysis; type: functional, cell-based; conditions: dose <= 0.5 µM
[11] = test system: Osimertinib-resistant HCC827AR cell; assay: Downregulation of Mcl-1 level in human Osimertinib-resistant HCC827 cell at upto 0.5 uM measured after 8 hrs by Western blotting analysis; type: functional, cell-based
NCI-H1975 [12] = assay: Downregulation of Mcl-1 level in human Osimertinib-resistant NCI-H1975 cell at upto 0.5 uM measured after 8 hrs by Western blotting analysis; type: functional, cell-based
[13] = Antiproliferative activity against human Osimertinib-resistant NCI-H1975 cell assessed as cell growth inhibition at 125 nM incubated for 72 hrs by MTT assay relative to control; type: functional; parameters: scale not given: the % may be the effect or the level left
[14] = Induction of apoptosis in human Osimertinib-resistant NCI-H1975 cell assessed as viable cells at 125 nM measured after 16 hrs by Annexin V-FITC and PI staining based analysis (reference value: 94.9%); type: functional; conditions: read-out: Activity
[15] = Induction of apoptosis in human Osimertinib-resistant NCI-H1975 cell assessed as early apoptotic cells at 125 nM measured after 16 hrs by Annexin V-FITC and PI staining based analysis (Rvb =1.78%); type: functional
[16] = Induction of apoptosis in human Osimertinib-resistant NCI-H1975 cell assessed as late apoptotic cells at 125 nM measured after 16 hrs by Annexin V-FITC and PI staining based analysis (Rvb =2.84%); type: functional
[17] = Induction of apoptosis in human Osimertinib-resistant NCI-H1975 cell assessed as necrotic cells at 125 nM measured after 16 hrs by Annexin V-FITC and PI staining based analysis (reference value: 0.50%); type: functional
NCI-H1975 [18] = assay: Downregulation of Mcl-1 level in human Osimertinib-resistant NCI-H1975 cell at 2 uM measured after 8 hrs by Western blotting analysis; type: functional, cell-based
[19] = Induction of apoptosis in human Osimertinib-resistant NCI-H1975 cell assessed as viable cells at 500 nM measured after 16 hrs by Annexin V-FITC and PI staining based analysis (reference value: 94.9%); type: functional; conditions: read-out: Activity
[20] = Induction of apoptosis in human Osimertinib-resistant NCI-H1975 cell assessed as viable cells at 2000 nM measured after 16 hrs by Annexin V-FITC and PI staining based analysis (reference value: 94.9%); type: functional; conditions: read-out: Activity
[21] = Induction of apoptosis in human Osimertinib-resistant NCI-H1975 cell assessed as early apoptotic cells at 500 nM measured after 16 hrs by Annexin V-FITC and PI staining based analysis (reference value: 1.78%); type: functional
[22] = Induction of apoptosis in human Osimertinib-resistant NCI-H1975 cell assessed as early apoptotic cells at 2000 nM measured after 16 hrs by Annexin V-FITC and PI staining based analysis (reference value: 1.78%); type: functional
[23] = Induction of apoptosis in human Osimertinib-resistant NCI-H1975 cell assessed as late apoptotic cells at 500 nM measured after 16 hrs by Annexin V-FITC and PI staining based analysis (reference value: 2.84%); type: functional
[24] = Induction of apoptosis in human Osimertinib-resistant NCI-H1975 cell assessed as late apoptotic cells at 2000 nM measured after 16 hrs by Annexin V-FITC and PI staining based analysis (reference value: 2.84%); type: functional
[25] = Induction of apoptosis in human Osimertinib-resistant NCI-H1975 cell assessed as necrotic cells at 500 nM measured after 16 hrs by Annexin V-FITC and PI staining based analysis (reference value: 0.50%); type: functional
[26] = Induction of apoptosis in human Osimertinib-resistant NCI-H1975 cell assessed as necrotic cells at 2000 nM measured after 16 hrs by Annexin V-FITC and PI staining based analysis (reference value: 0.50%); type: functional
cells = conditions: Homo sapiens, Osimertinib-resistant HCC827AR cell, 72 h

Row | Structure (SMILES) | IC50 (HCC827 [1]) [µM] | IC50 (NCI-H1975 [2]) [µM] | Activity [3] [%] | IC50 (CDK9/cyclin T1) [µM] | IC50 (CDK2/Cyclin A2) [µM] | also measured
1 | O=C(c1ccc2cc1OCCCCOc1cc(ccc1F)-c1nc(ncc1F)N2)N1CCCNCC1 | 1.94 | 1.18 | -27 | – | – | inhibition [4]: 27%; inhibition [5]: 21.2%
2 | CN(C)CCNC(=O)c1ccc2cc1OCCCCOc1cc(ccc1F)-c1nc(ncc1F)N2 | 0.031 | 0.026 | 82.6 | 0.0011 | 0.0032 | –
3 | O=C(NC1CCOCC1)c1ccc2cc1OCCCCOc1cc(ccc1F)-c1nc(ncc1F)N2 | 0.181 | 0.283 | 99 | 0.0028 | 0.0951 | inhibition [6]: 60.9%; inhibition [7]: 73.2%
4 | C=CC(=O)Nc1cc(Nc2nccc(-c3cn(C)c4ccccc34)n2)c(OC)cc1N(C)CCN(C)C [OSIMERTINIB] | 0.057 | […] | – | – | – | IC50 [8]: 4.69 µM; Activity (HCC827 [9]): Dose-Dependent Effect; Activity (NCI-H1975 [10]): Dose-Dependent Effect; Activity [11]: inactive; Activity (NCI-H1975 [12]): inactive; Activity [13]: 10%; viability at 0.125 µM [14]: 92.4%; Activity [15]: 2.52%; Activity [16]: 1.8%; Activity [17]: 3.25%
5 | O=C(NCCN1CCOCC1)c1ccc2cc1COCCCCOCc1cc(ccc1F)-c1nc(ncc1F)N2 | – | 0.613 | – | 0.0077 | 0.14 | –
6 | COc1cc(F)ccc1-c1ncnc(Nc2cccc(C[S@](C)(=N)=O)c2)n1 [ATUVECICLIB] | – | – | – | – | – | IC50 [8]: 1.08 µM; Activity (NCI-H1975 [18]): Active; viability at 0.5 µM [19]: 91.3%; viability at 2 µM [20]: 91.9%; Activity [21]: 3.16%; Activity [22]: 2.58%; Activity [23]: 4.49%; Activity [24]: 3.66%; Activity [25]: 1.06%; Activity [26]: 1.84%; IC50 (cells): 0.99 µM
7 | O=C(NC1CCC(N2CCOCC2)CC1)c1ccc2cc1OCCCCCCOc1cc(ccc1F)-c1nc(ncc1F)N2 (stereo unspecified) | 0.421 | 0.814 | 64.6 | 0.002 | 0.715 | –
8 | O=C(NCCN1CCOCC1)c1ccc2cc1OCCOCCOc1cc(ccc1F)-c1nc(ncc1F)N2 | 0.052 | 0.054 | – | 0.0021 | 0.01 | inhibition [6]: 68.7%; inhibition [7]: 71.4%
9 | O=C(NC1CCN(C2CCOCC2)CC1)c1ccc2cc1OCCCCCCOc1cc(ccc1F)-c1nc(ncc1F)N2 | 0.255 | 0.373 | 54.4 | 0.0026 | 0.117 | –
10 | O=C(c1ccc2cc1OCCCCOc1cc(ccc1F)-c1nc(ncc1F)N2)N1CCC(N2CCOCC2)CC1 | 4.78 | 2.68 | -34 | – | – | inhibition [4]: 20.9%; inhibition [5]: 9.1%
11 | O=C(NCC1CCNCC1)c1ccc2cc1OCCCCOc1cc(ccc1F)-c1nc(ncc1F)N2 | 0.343 | 0.336 | 1.6 | 0.0021 | 0.015 | –
12 | CN1CCN(CCNC(=O)c2ccc3cc2OCCCCCCOc2cc(ccc2F)-c2nc(ncc2F)N3)CC1 | – | 0.143 | – | 0.0023 | 0.0254 | –
13 | O=C(NCCN1CCOCC1)c1ccc2cc1OCCCCOc1cc(ccc1F)-c1nc(ncc1F)N2 | 0.182 | 0.021 | 95.6 | 0.0009 | 0.0342 | inhibition [6]: 77.3%; inhibition [7]: 79.7%
14 | O=C(NCCN1CCOCC1)c1ccc2cc1OCCCCCOc1cc(ccc1F)-c1nc(ncc1F)N2 | 0.267 | 0.115 | 73.4 | 0.0011 | 0.0662 | inhibition [6]: 62.8%; inhibition [7]: 56.5%
15 | COc1cc(F)ccc1-c1ncnc(Nc2ccc(C(=O)NCCN(C)C)cc2)n1 | 340 | 254 | – | 0.0031 | 0.024 | –
16 | CN1CCC(NC(=O)c2ccc3cc2OCCCCCCOc2cc(ccc2F)-c2nc(ncc2F)N3)CC1 | – | 0.135 | – | 0.0032 | 0.0307 | –
17 | O=C(NC1CCCNCC1)c1ccc2cc1OCCCCOc1cc(ccc1F)-c1nc(ncc1F)N2 (stereo unspecified) | 0.403 | 0.116 | 21.1 | 0.0031 | 0.0543 | –
18 | O=C(c1ccc2cc1OCCCCOc1cc(ccc1F)-c1nc(ncc1F)N2)N1CCC(N2CCOCC2)C1 (stereo unspecified) | 5.17 | 1.87 | – | – | – | inhibition [4]: 27.6%; inhibition [5]: 11.7%
19 | O=C(c1ccc2cc1OCCCCOc1cc(ccc1F)-c1nc(ncc1F)N2)N1CCNCC1 | 2.47 | 1.05 | – | – | – | inhibition [4]: 45.7%; inhibition [5]: 32.9%
